# From patent US11213593B2, “Sequence-specific cellular uptake of spherical nucleic acid nanoparticle conjugates” (priority 2014, dated 2022)
# Key:
# C166 cells [1] = assay: Confocal microscopy of QD-SNAs in C166 cells; format: cell-based, mouse; details: C166 cells co-treated with equal concentrations of a QD-SNA and an AuNP-SNA of the other shell
# Experimental: Five nanometer AuNP-SNAs and QD-SNAs comprised of oligonucleotides listed in Table 2 were prepared to study the effect of the poly G shell on the cellular uptake of SNAs of different core compositions (FIG. 6). All sequences are 28 bases long and terminated with a dibenzocyclooctyl (DBCO) group. The AuNP-SNAs and QD-SNAs were synthesized using a previously described strategy [Zhang et al., Nat Mater 12: 741-746 (2013), incorporated herein by reference in its entirety]. In one set of experiments, C166 cells were treated with equal concentrations of T-rich QD-SNAs and poly G AuNP-SNAs. In another set of experiments, cells were treated with equal concentrations of T-rich AuNP-SNAs and poly G QD-SNAs. Confocal microscopy was then used to track the fluorescent signal of the QDs that entered cells. […] To further confirm, ICP-MS was used to analyze the Au content and Cd content in C166 cells treated with T-rich AuNP-SNAs or QD-SNAs alone, poly G AuNP-SNAs or QD-SNAs alone, a combination of T-rich AuNP-SNAs and poly G QD-SNAs, and a combination of T-rich QD-SNAs and poly G AuNP-SNAs. C166 cells treated with poly G AuNP-SNAs have 3 times higher Au content than cells treated with T-rich AuNP-SNAs. […] Cells treated with poly G AuNP-SNAs and T-rich QD-SNAs have higher Au content compared to Cd content, and this trend is reversed for cells treated with T-rich AuNP-SNAs and poly G QD-SNAs (FIG. 6b).
# C166 cells [2] = assay: ICP-MS of Au and Cd content in C166 cells (competitive cellular uptake assay); format: cell-based, mouse
# Experimental: Five nanometer AuNP-SNAs and QD-SNAs comprised of oligonucleotides listed in Table 2 were prepared to study the effect of the poly G shell on the cellular uptake of SNAs of different core compositions (FIG. 6). All sequences are 28 bases long and terminated with a dibenzocyclooctyl (DBCO) group. The AuNP-SNAs and QD-SNAs were synthesized using a previously described strategy [Zhang et al., Nat Mater 12: 741-746 (2013), incorporated herein by reference in its entirety]. In one set of experiments, C166 cells were treated with equal concentrations of T-rich QD-SNAs and poly G AuNP-SNAs. In another set of experiments, cells were treated with equal concentrations of T-rich AuNP-SNAs and poly G QD-SNAs. Confocal microscopy was then used to track the fluorescent signal of the QDs that entered cells. […] To further confirm, ICP-MS was used to analyze the Au content and Cd content in C166 cells treated with T-rich AuNP-SNAs or QD-SNAs alone, poly G AuNP-SNAs or QD-SNAs alone, a combination of T-rich AuNP-SNAs and poly G QD-SNAs, and a combination of T-rich QD-SNAs and poly G AuNP-SNAs. […]
# ICP-MS. After adding 5 μL of 5 ppm indium (internal standard) and 5 mL of matrix solution (2% HCl and 2% HNO3), the Au-197 content of the resultant solution was measured by an X Series II ICP-MS (ThermoFisher) after subtracting the background gold content of untreated cells. […]
Substance,intracellular fluorescence of QDs (C166 cells [1]),Cd content of cells versus cells treated with T-rich QD-SNAs (C166 cells [2]; C166 cells),competitive cellular uptake (Au versus Cd content) (C166 cells [2]; C166 cells treated with a combination of AuNP-SNAs and QD-SNAs)
"T-rich QD-SNAs: CdSe quantum dot, polymer-coated, with DBCO-terminated 28-base T-rich DNA, SEQ ID NO: 8 (DNA TATCGTATTTACTCTGATTTTTTTTTTT; DBCO-terminated DNA clicked to polymer-coated CdSe quantum dot, further chemistry not given here)",very little intracellular fluorescence,,
"poly G QD-SNAs: CdSe quantum dot, polymer-coated, with DBCO-terminated 28-base DNA (GGT)5T13, SEQ ID NO: 7 (DNA GGTGGTGGTGGTGGTTTTTTTTTTTTTT; DBCO-terminated DNA clicked to polymer-coated CdSe quantum dot, further chemistry not given here)",significantly higher intracellular fluorescence,three-fold higher Cd content,preferentially enter cells
